Consider two molecules from patent US20040023945A1, “CYCLIC AMP-SPECIFIC PHOSPHODIESTERASE INHIBITORS” (ICOS Corporation, priority 1999, published 2004).

One series concerns Balb/c mice. In words: Mouse locomotor activity assay (decrease in spontaneous mobility). The settings on record: in vivo, ip. The protocol:
The purpose of this study was to determine the efficacy of PDE4 inhibitors in vivo in an LPS mouse model together with a determination with respect to central nervous system (CNS) side-effects manifested by a decrease in spontaneous mobility.
The test animals were female Balb/c mice, having an average weight of about 20 g. The PDE4 inhibitors, formulated in 30% Cremophor® EL, were administered via intraperitoneal (i.p.) injections at doses of 0.1, 1.0, 10.0, and 100 mg/kg. Individual dose volumes (about 150 μL) were adjusted based on the body weights measured. One hour later, 5 mg/kg LPS in a final volume of 200 μL was injected via the tail vein to each animal. Ninety minutes following the LPS treatment, the animals were bled and serum samples were collected before being stored at −70° C. until assayed.
Movement of the X-Y plane, or rearing up on the hind legs, was quantified by counting the number of “light-beam” crosses per unit of time. A decrease in the number of activity events is directly proportional to the mobility or immobilization of the animal. The quantitative scoring correlated well with the subjective measurements described above.

The target of the next series is T1, human recombinant PDE4B (Homo sapiens, UniProt Q07343).
T1 construct: made in house; host or cells: Saccharomyces cerevisiae strain YI23 harboring HDUN2.32
T1 sequence (Q07343 whole entry): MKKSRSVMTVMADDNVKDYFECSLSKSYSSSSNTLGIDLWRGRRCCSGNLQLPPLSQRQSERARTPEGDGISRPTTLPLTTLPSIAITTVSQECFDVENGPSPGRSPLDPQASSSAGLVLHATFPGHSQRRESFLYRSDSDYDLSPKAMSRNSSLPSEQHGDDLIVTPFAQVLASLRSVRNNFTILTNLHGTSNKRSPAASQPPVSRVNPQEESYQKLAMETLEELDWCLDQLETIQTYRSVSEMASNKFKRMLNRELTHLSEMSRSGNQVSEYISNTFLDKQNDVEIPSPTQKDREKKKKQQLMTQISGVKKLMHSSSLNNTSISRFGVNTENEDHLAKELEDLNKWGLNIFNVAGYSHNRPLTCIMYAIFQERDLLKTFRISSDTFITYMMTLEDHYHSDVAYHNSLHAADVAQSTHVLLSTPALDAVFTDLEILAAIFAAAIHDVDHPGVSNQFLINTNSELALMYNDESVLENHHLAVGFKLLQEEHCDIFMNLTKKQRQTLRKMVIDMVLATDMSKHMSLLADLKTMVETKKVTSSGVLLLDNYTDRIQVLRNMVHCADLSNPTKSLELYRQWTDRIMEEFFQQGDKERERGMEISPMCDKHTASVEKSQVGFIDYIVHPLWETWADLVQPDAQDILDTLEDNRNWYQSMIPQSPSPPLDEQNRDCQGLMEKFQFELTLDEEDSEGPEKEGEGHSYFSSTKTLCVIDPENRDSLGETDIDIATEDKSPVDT
In words: Inhibition of human recombinant PDE4B. Format: biochemical. The settings on record: read-out: IC50 vs. human recombinant PDE4B.

The next series deals with T2, PDE1A (Homo sapiens, UniProt P54750).
T2 construct: contained the complete open reading frame of PDE1A3; made in house; host or cells: baculovirus-infected Sf9 cells
In words: Inhibition of PDE1A. It counts as biochemical.

A further series deals with T3, PDE1B (Homo sapiens, UniProt Q01064).
T3 construct: made in house; host or cells: Saccharomyces cerevisiae BJ2-54
In words: Inhibition of PDE1B. It counts as biochemical.

Another series concerns the target T4, PDE1C (Homo sapiens, UniProt Q14123).
T4 construct: contained the complete open reading frame of PDE1C3; made in house; host or cells: baculovirus-infected Sf9 cells
In words: Inhibition of PDE1C. It counts as biochemical.

The next series addresses T5, PDE2 (Homo sapiens, UniProt O00408).
T5 construct: made in house; host or cells: Saccharomyces cerevisiae strain YI34
In words: Inhibition of PDE2. It counts as biochemical.

The target of another series is T6, PDE3A (Homo sapiens, UniProt Q14432).
T6 construct: contained the complete open reading frame of PDE3A; made in house; host or cells: baculovirus-infected Sf9 cells
T6 sequence (Q14432 whole entry): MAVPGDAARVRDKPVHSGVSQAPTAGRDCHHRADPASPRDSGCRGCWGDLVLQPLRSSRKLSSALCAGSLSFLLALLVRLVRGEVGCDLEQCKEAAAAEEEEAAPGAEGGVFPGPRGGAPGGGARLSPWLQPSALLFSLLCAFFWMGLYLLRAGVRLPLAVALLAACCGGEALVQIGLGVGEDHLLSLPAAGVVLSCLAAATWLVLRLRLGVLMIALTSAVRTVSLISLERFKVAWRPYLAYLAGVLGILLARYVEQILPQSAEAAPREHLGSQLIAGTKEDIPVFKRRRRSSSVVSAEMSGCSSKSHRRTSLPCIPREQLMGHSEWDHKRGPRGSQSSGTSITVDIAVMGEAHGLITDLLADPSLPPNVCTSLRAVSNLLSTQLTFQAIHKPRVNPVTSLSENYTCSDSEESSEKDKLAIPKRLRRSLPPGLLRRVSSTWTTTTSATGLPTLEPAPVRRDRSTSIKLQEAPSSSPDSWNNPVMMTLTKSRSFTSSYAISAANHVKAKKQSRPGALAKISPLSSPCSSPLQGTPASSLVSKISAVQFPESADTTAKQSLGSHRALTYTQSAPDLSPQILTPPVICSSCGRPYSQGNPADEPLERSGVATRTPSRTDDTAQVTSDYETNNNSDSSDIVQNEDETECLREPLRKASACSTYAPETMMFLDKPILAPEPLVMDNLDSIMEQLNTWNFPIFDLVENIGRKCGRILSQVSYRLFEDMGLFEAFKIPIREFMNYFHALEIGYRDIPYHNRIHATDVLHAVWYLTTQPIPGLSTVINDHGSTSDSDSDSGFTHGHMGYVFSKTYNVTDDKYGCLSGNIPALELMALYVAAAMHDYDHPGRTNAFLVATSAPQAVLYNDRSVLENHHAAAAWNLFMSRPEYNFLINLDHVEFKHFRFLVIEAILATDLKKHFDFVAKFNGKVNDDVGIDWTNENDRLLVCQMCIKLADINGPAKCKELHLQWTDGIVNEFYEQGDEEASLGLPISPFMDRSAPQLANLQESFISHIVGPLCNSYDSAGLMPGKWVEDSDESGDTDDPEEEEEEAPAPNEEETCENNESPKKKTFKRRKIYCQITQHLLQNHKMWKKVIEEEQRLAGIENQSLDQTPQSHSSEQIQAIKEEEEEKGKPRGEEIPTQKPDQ
In words: Inhibition of PDE3A. Format: biochemical.

Another series has as its target T7, PDE5 (Homo sapiens, UniProt O76074).
T7 construct: made in house; host or cells: Saccharomyces cerevisiae BJ2-54
In words: Inhibition of PDE5. Format: biochemical.

The target of the next series is T8, PDE7 (Homo sapiens, UniProt Q13946).
T8 construct: made in house; host or cells: Saccharomyces cerevisiae BJ2-54
T8 sequence (Q13946 whole entry): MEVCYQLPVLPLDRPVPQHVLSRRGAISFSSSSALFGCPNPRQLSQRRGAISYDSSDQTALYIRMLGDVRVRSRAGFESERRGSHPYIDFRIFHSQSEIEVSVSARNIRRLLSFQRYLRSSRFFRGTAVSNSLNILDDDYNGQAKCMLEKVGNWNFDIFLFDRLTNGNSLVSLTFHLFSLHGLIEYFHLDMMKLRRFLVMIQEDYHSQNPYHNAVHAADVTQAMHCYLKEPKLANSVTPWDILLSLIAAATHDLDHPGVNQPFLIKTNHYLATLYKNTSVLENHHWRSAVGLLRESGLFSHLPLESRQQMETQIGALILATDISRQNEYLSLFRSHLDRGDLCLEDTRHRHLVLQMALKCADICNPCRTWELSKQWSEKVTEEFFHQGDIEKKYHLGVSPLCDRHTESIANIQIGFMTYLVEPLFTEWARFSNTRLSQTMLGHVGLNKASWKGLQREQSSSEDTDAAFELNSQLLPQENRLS
Kind of series: Inhibition of PDE7. It counts as biochemical.

The test system of series [1] is human peripheral blood lymphocytes. In words: Lipopolysaccharide-stimulated TNFα release from human peripheral blood lymphocytes. Format: cell-based. The settings on record: Homo sapiens, Lymphocyte, LPS-stimulated TNFα release from human PBL; read-out: PBL/TNFα EC50. The procedure, abridged:
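Lymphocytes were isolated by Histopaque from heparinized human blood and plated at 3×10^6 cells/mL. Test compound was added 15 min before LPS ([…]), and cells were incubated 20 h at 37 °C. TNFα in the supernatant was measured by ELISA, and EC50 was taken as 50% inhibition of total TNFα.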

Series [2] relates to serum TNFα levels in LPS-injected mice. In words: Inhibition of serum TNFα levels in LPS-injected mice (Mouse/TNFα ED50). Format: in vivo. The settings on record: Mus musculus, stereoisomer comparison table; read-out: Mouse/TNFα ED50. The protocol:
In order to assess the ability of a compound to reduce serum TNFα levels in mammals, the following protocol was employed. […] Accordingly, in vivo efficacy of a PDE4 reducing compound was shown by dosing with compound and measuring reduction of serum TNFα levels in LPS-injected mice. Female C3H mice, 20-25 gm body weight, were fasted overnight and dosed intraperitoneally with test compound in appropriate vehicle 60 minutes before LPS injection. Five μg of LPS was then injected intraperitoneally into the mice. Ninety minutes after LPS injection, mice were bled from the heart. Blood was allowed to clot overnight at 4° C. Samples were centrifuged for 10 minutes in a microcentrifuge and the serum removed and stored at −20° C. until analysis. Serum levels of TNFα were subsequently measured using a commercially available ELISA kit (Genzyme) following the protocol enclosed in the kit. The percent of inhibition of serum TNFα levels caused by the compound was determined relative to serum TNFα levels in control mice receiving vehicle alone. […]

The next series concerns mouse. Kind of series: Subjective assessment of mouse immobility (CNS side effects). The settings on record: subjective assessment of mouse immobility, i.p. 1, 10 and 100 mg/kg, 60 minutes. Format: in vivo.
For the next series, the system named is ferret. In words: Emetic modeling in the ferret following oral and intravenous dosing. It counts as in vivo, Mustela putorius furo. The protocol:
This study was conducted to investigate the emetogenic properties of PDE4 inhibitors in vivo. The ferret previously has been established as a valuable tool for assessing emesis following exposure to test compounds. […] Therefore, lack of and/or decrease in emetic potential of test compounds in ferrets predicts a favorable nonemetic effect in humans. Emesis is a complex physiological response to noxious agents that can be intiated peripherally or centrally.
The test animals were adult, castrated, and descented male ferrets (species=Mustela putorius furo, Strain=Sable) ranging in weight from about 1 to 1.5 kg. The tests were performed in quadruplicate on animals that were naive to PDE4 inhibitors. The PDE4 inhibitors were formulated in 10% Polyoxyl-35 castor oil (CREMOPHOR® EL, available from BASF Corporation, Parsippany, N.J.) in phosphate buffered saline (PBS), and were administered via i.v. injections into an indwelling catheter surgically positioned in the right external jugular vein at a rate of 0.66 mL per kg body weight. PDE4 inhibitors for oral consumption were formulated in 30% CREMOPHOR® EL in PBS, and administered by intubating animals with a 16-gauge feeding needle into the stomach. The animals received the PDE4 inhibitors in a volume of 1.33 mL per kg body weight.
All animals were fasted for 8 to 12 hours prior to administration of PDE4 inhibitors. Following administration of a PDE4 inhibitor, emetic and behavioral responses were quantified for three hours post dosing. The total number of emetic responses and vomiting episodes were quantified during the observation interval. In addition, latency time to first emetic episode, duration of emesis episodes, and gross behavioral changes including ataxia, profuse and viscous salivation, mouth clawing, hyperventilation, backward walking, flattened body posture, hyperactivity, lip licking, and general appearance were recorded.
For comparative purposes, the emetogenic effect of Samples 66 and 69 were tested intravenously at 1.0, 2.5, 5.0, and 10 mg/kg and orally at 2.5, 10, 17, and 25 mg/kg.

The test system of a further series is recombinant human PDE4. Kind of series: Inhibition of recombinant human PDE4 (cAMP hydrolysis). The settings on record: read-out: PDE4 IC50.

Where two headings read alike, the source gives them in different places.

T5 sequence (O00408 whole entry): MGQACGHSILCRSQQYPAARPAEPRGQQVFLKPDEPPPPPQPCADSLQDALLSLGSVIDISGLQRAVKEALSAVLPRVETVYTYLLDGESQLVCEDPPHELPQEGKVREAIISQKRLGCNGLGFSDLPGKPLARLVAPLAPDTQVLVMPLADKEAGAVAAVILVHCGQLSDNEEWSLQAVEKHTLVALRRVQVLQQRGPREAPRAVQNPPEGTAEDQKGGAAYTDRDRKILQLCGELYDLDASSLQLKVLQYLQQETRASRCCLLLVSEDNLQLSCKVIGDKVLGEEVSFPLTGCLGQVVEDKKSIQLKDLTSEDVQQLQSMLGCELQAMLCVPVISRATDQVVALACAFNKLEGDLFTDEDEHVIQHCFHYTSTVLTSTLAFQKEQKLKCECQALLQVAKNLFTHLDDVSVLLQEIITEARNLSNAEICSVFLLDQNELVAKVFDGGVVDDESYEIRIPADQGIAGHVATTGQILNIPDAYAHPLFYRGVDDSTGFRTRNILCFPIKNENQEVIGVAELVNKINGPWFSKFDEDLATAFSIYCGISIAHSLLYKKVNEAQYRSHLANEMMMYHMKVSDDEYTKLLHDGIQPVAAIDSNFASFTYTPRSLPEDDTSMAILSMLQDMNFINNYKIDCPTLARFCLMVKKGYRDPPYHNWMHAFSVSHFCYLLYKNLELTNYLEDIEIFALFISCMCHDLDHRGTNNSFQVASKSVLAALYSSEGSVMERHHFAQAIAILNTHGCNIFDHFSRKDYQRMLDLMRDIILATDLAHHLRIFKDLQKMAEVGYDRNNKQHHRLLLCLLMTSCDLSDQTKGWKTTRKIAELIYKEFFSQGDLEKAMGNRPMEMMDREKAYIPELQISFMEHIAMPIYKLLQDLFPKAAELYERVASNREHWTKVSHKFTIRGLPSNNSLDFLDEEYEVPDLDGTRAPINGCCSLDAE
Experimental for recombinant human PDE4: The compounds of structural formula (II) were tested for an ability to inhibit PDE4. […] The IC, value for compounds of structural formula (II) were determined using recombinant human PDE4.
Phosphodiesterase activity of the preparations was determined as follows. […] In this assay, PDE activity converts [32P]cAMP or [32P]cGMP to the corresponding [32P]5′-AMP or [32P]5′-GMP in proportion to the amount of PDE activity present. The [32P]5′-AMP or [32P]5′-GMP then was quantitatively converted to free [32P]phosphate and unlabeled adenosine or guanosine by the action of snake venom 5′-nucleotidase. […] The assay was performed at 30° C. in a 100 μL reaction mixture containing (final concentrations) 40 mM Tris HCl (pH 8.0), 1 μM ZnSO4, 5 mM MgCl2, and 0.1 mg/mL bovine serum albumin (BSA). […] PDE enzyme was present in quantities that yield<30% total hydrolysis of substrate (linear assay conditions). The assay was initiated by addition of substrate (1 mM [32P]cAMP or cGMP), and the mixture was incubated for 12 minutes. Seventy-five (75) μg of Crotalus atrox venom then was added, and the incubation was continued for 3 minutes (15 minutes total). The reaction was stopped by addition of 200 μL of activated charcoal (25 mg/mL suspension in 0.1 M NaH2PO4, pH 4). After centrifugation (750×g for 3 minutes) to sediment the charcoal, a sample of the supernatant was taken for radioactivity determination in a scintillation counter and the PDE activity was calculated.

As for `COc1ccc([C@@H]2CN(C(=O)CNC(=O)OCc3ccccc3)C[C@@]2(C)[C@@H](C)O)cc1OC1Cc2ccccc2C1` [Example 29, N-(2-[3-((1R)-1-Hydroxyethyl)(3S,4S)-4-(3-indan-2-yloxy-4-methoxyphenyl)-3-methylpyrrolidinyl]-2-oxoethyl}(phenylmethoxy)carboxamide], in the series on Balb/c mice, the “ED50, effective dose that decreases spontaneous mobility 50% of control” value came out at 9.8 mg/kg.

Take `COC(=O)N1C[C@@H](c2ccc(OC)c(OC3CCCC3)c2)[C@](C)([C@@H](C)O)C1` [(C)]: the IC50 at human recombinant PDE4B turned out to be 0.015 µM; on PDE1A it was 80 µM; against PDE1B it was 100 µM; on PDE1C, 12 µM; on PDE2, 450 µM; against PDE3A it was 40 µM. For the same molecule, the IC50 against PDE5 was 270 µM; at PDE7 it was 36 µM; in the series on recombinant human PDE4 (human recombinant PDE4), 0.014 µM; in the series on recombinant human PDE4 (stereoisomer comparison table), 0.014 µM. For the same molecule, the EC50 in series [1] was 0.0716 µM. Further, in [2], the ED50 was determined as 5 mg/kg. In the series on mouse, the “CNS Side Effects” value is given as “No effect”. Also, the “Number of Emetic Events: Retches” value with ferret (intravenous 1.0 mg/kg) is 0; in the series on ferret (intravenous 2.5 mg/kg), 0; in the series with ferret (intravenous 5.0 mg/kg), 10; with ferret (intravenous 10.0 mg/kg) it was 27; in the series on ferret (oral 2.5 mg/kg), 0; in the series on ferret (oral 10.0 mg/kg), 14. Besides, the “Number of Emetic Events: Retches” value with ferret (oral 17.0 mg/kg) is 17; in the series on ferret (oral 25.0 mg/kg), 61. Besides, the “Number of Emetic Events: Total” value in the series with ferret (intravenous 1.0 mg/kg) came out at 0; in the series on ferret (intravenous 2.5 mg/kg), 0; in the series on ferret (intravenous 5.0 mg/kg) it was 10; in the series on ferret (intravenous 10.0 mg/kg), 31; with ferret (oral 2.5 mg/kg), 0; in the series on ferret (oral 10.0 mg/kg), 22. For the same molecule, the “Number of Emetic Events: Total” value is 18 in the series on ferret (oral 17.0 mg/kg) and 73 in the series with ferret (oral 25.0 mg/kg). Moreover, the “Number of Emetic Events: Vomits” value stood at 0 in the series on ferret (intravenous 1.0 mg/kg); 0 with ferret (intravenous 2.5 mg/kg); 0 in the series on ferret (intravenous 5.0 mg/kg); 4 in the series with ferret (intravenous 10.0 mg/kg); 0 in the series with ferret (oral 2.5 mg/kg); 8 in the series with ferret (oral 10.0 mg/kg). For the same molecule, the “Number of Emetic Events: Vomits” value in the series with ferret (oral 17.0 mg/kg) was found to be 1; in the series with ferret (oral 25.0 mg/kg) it was 12. For the same molecule, the Responders with ferret (intravenous 1.0 mg/kg) is given as 0/4; in the series with ferret (intravenous 2.5 mg/kg), 0/4; in the series on ferret (intravenous 5.0 mg/kg), 2/4; in the series with ferret (intravenous 10.0 mg/kg) it was 4/4; in the series on ferret (oral 2.5 mg/kg), 0/4; in the series on ferret (oral 10.0 mg/kg), 2/4. In addition, the Responders is given as 2/3 with ferret (oral 17.0 mg/kg) and 4/4 in the series on ferret (oral 25.0 mg/kg). Moreover, the “distress after intravenous dosing” value in the series with ferret (intravenous 10 mg/kg body weight) is on record as “none displayed the distress”.
